# Assay results published in EP0765662A1, “HIV GROWTH INHIBITORY COMPOSITION” (Kochi, Mutsuyuki, priority 1994, dated 1995).
# Structures can show the parent of a compound that is named as a salt. Where two headings read alike, the source gives them in different places.
# Tests used:
# Type in all cases: cell-based
# [1] = Cytotoxicity of SBA, trypan blue dye-exclusion, A3.01 cells; details: human, read-out: Rate of survival of the cells (%)
# From the text: It is known that stimulation of HIV gene by TPA and tumor necrosis factor (TNF) can activate the HIV gene which is latent as the HIV-provirus within the T-cells as infected with HIV and said stimulation can thus strongly induce the progresses of sprouting and release of the viral particles of HIV. It is considered that said activation of the HIV gene for the occurrence or developement of HIV virus would be caused by such an oxidation stress which is brought about within the host cells by any stimulation given from outside the host cells as above-mentioned. Further, such discoveries and observations have been reported that NFkB, which is a nuclear factor wthin the cells, can play important part in the proliferation of HIV virus, and that the oxidation-reduction status of the NFkB is important for the activation of this factor NFkB, and so on. […] (a) Test of examining cytotoxicity of SBA against various kinds of T-cells A3.01 cells (HAT-susceptible CEM cell strain), A3.01 cells as infected with HIV, and the above-mentioned U1 cells were cultivated, respectively, in an improved RPM1-1640 media containing SBA added at different concentrations. After the cultivation, the number of the cells under test which still survived was determined under a polarizing microscope by a trypan blue dye-exclusion method.
# HIVBRU = experiment: Formation of giant cells from HIV-infected Molt-4 cells (mixed cultivation, microscopic observation); details: mixed cultivation of HIV-infected and HIV-non-infected Molt-4 cells; 20 hours of the cultivation; read-out: concentration of SBA that can inhibit the formation of the giant cells
# Description: In the tests above, the replication of the viral particles of HIV was examined in terms of the amount of the p24 antigen protein produced and appearing in the culture supernatant from the cultivated cells. Thus, the amount of the p24 antigen produced was measured periodically over 6 days after the A3.01 cells were infested with HIV. It was then observed that in the absence of SBA, the replication of the viral particles of HIV was induced in the A3.01 cells by stimulation with 10 units/ml of TNF-α added. […] Thus, the effective amount of SBA has the activity to inhibit the replication of the viral particles of HIV within the cells to an extent as same as AZT, and from this it is expected that SBA is useful similarly to AZT for the therapeutic treatments of AIDS. (d) Tests for evaluating an inhibitory activity of SBA to the formation of giant cells from HIV-infected Molt-4 cells In a similar manner to that in the above Test (c), Molt-4 cells (a CD4-positive human T-cell strain) were infected with AIDS virus, HIVBRU. Thereafter, The HIV-infected Molt-4 cells were mixed with such Molt-4 cells which had no HIV-infection. And the mixture of these cells were cultivated at a high density of the mixed cells in the above-mentioned improved RPM1-1640 medium containing SBA at its different concentrations. […]
# HIV = experiment: HIV-p24 antigen in culture supernatant of HIV-infected mitogen-derived blast cells of PBMC; details: for Amount of HIV-p24 antigen: PHA-activated PBMC blast cells, culture supernatant
# Description: The cytotoxicity of SBA against the A3.01 cells, at a high SBA concentration of 1000 µg of SBA/ml, was such that the rate of survival of said cells was about 70%. The above results of testing the cytotoxicity of SBA indicate that the cytotoxicity of SBA against the above various cells is fairly low. On the other hand, with the HIV-infected A3.01 cells, it is seen that the presence of SBA at concentrations in a range of from 500 to 800 µg of SBA/ml gives the rate of survival of the HIV-infected A3.01 cells at a level as low as 3-24%. […] (b) Tests of examining the inhibitory activities of SBA against infestion of HIV to mitogen-derived blast cells of human periphery blood monocytic cell (PBMC) and against proliferation of HIV in the HIV-infected blast cells of PMBC as well as against replication of the viral particles of HIV in the HIV-infected blast cells of PBMC, where HIV was made to infest the blast cells of PBMC of which the blastogenesis has been induced by a mitogen. Such blast cells of PBMC, which were blastogenetically transformed by activation with PHA […] as a mitogen, were cultivated and then made to be infested with HIV either by inoculation of HIV or by inoculation of HIV which had been pretreated with SBA. The HIV-infected cells so obtained continued further to be incubated in the culture media containing different concentrations of SBA. Then, the supernatant of the resulting cultures was separated, and the amount of the viral particles of HIV as released in the supernatant so obtained was measured. This measurement of the released amount of the viral particles of HIV was made by determining the amount of HIV-p24 antigen, i.e. a structural protein of HIV, existing in the supernatant, as a substitute index which can represent the amount of the viral particles of HIV so released in said supernatant.
structure (smiles),measurement,setting,value
"O=C1O[C@H]([C@@H]2COC(c3ccccc3)O2)C(O)=C1O (stereo partly drawn) [SBA, 5,6-O-benzylidene-L-ascorbic acid mono-sodium salt]",viability,[1]; SBA 100 µg/ml,97%
same,viability,[1]; SBA 1000 µg/ml,~70%
same,minimal effective concentration,HIVBRU,≥ 10 µg/mL
same,inhibition of the replication of the viral particles of HIV (in words),"HIV; PBMC blast cells infected with the SBA-pretreated HIV, cultivated in the presence of SBA",no appreciable effect of SBA to inhibit the replication of the viral particles of HIV can be observed
same,Amount of HIV-p24 antigen,"HIV; SBA 10 µg/ml, cells as infected with HIV",1500 pg/mL
same,Amount of HIV-p24 antigen,"HIV; SBA 10 µg/ml, cells as infected with the SBA-pretreated HIV",1240 pg/mL
same,Amount of HIV-p24 antigen,"HIV; SBA 50 µg/ml, cells as infected with HIV",1400 pg/mL
same,Amount of HIV-p24 antigen,"HIV; SBA 50 µg/ml, cells as infected with the SBA-pretreated HIV",1520 pg/mL
same,inhibition of the production of the HIV antigen (in words),"HIV; SBA 100 µg/ml, PHA-activated PBMC blast cells infested with HIV",exhibited an effective activity inhibitory to the production of the HIV antigen
same,Amount of HIV-p24 antigen,"HIV; SBA 100 µg/ml, cells as infected with HIV",380 pg/mL
same,Amount of HIV-p24 antigen,"HIV; SBA 100 µg/ml, cells as infected with the SBA-pretreated HIV",1430 pg/mL
